Data on one molecule can be found in publication PMC8862293, “Quercetin mitigates rheumatoid arthritis by inhibiting adenosine deaminase in rats” (Molecular Medicine, 2022).

The structures appear in SMILES notation.

This assay deals with T1, adenosine deaminase (ADA) (Rattus norvegicus, UniProt Q920P6).
T1 construct: native enzyme partially purified from rat joint tissue
T1 sequence (Q920P6 2-352): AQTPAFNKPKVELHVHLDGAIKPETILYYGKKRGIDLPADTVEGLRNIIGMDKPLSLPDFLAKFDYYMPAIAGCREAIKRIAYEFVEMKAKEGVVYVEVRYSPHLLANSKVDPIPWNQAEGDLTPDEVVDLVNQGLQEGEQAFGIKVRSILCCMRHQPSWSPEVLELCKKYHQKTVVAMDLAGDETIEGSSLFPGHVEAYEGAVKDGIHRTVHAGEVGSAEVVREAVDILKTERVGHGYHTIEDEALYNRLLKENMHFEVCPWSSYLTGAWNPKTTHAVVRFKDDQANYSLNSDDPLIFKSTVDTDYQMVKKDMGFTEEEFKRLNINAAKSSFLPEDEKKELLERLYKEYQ
In words: Colorimetric (Giusti) ADA activity assay on partially purified rat joint enzyme; Lineweaver-Burk kinetics. The assay is classed as biochemical.

Broadly, the IC50 is the concentration needed to halve the response being measured. Take `O=c1c(O)c(-c2ccc(O)c(O)c2)oc2cc(O)cc(O)c12` [quercetin]: the IC50 worked out at 170 µM.
